Laboratory results reported in the supplement of paper PMC10883282.
± gives the standard deviation of the averaged measurements.

System: SW872
Experiment: relative viability vs DMSO control (72 h) (fraction); higher = more viable cells
Method in brief: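 Sarcoma cell lines were plated in 384 wells to reach 80–90% confluence, treated after 24 h with 2.5 µl of serially diluted compound and held 72 h at 37 °C, 5% CO2. Relative viability was taken as percent growth from ATPLite readings, averaged over up to triplicate wells. The values were rescaled so that 1 marks full and 0 marks none.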

Row | Structure (SMILES) | relative viability (0.00017 µM) | relative viability (0.00051 µM) | relative viability (0.00152 µM) | relative viability (0.00457 µM) | relative viability (0.01372 µM) | relative viability (0.04115 µM) | relative viability (0.1235 µM) | relative viability (0.3704 µM) | relative viability (1.111 µM) | relative viability (3.333 µM) | relative viability (10 µM)
1 | C=CC(=O)Nc1cccc(Oc2nc(Nc3ccc(N4CCN(C)CC4)cc3)nc3ccsc23)c1 [Olmutinib] | 1.01 ± 0.04 | 1.03 ± 0.011 | 1.02 ± 0.029 | 1.03 ± 0.034 | 1.034 ± 0.0086 | 1.01 ± 0.044 | 1.01 ± 0.011 | 1.02 ± 0.018 | 1.011 ± 0.0092 | 0.873 ± 0.05 | 0.625 ± 0.015
2 | COc1cc2c(Oc3ccc4[nH]c(C)cc4c3F)ncnc2cc1OCCCN1CCCC1 [Cediranib] | 1.04 ± 0.024 | 1.05 ± 0.039 | 1.06 ± 0.042 | 1.05 ± 0.016 | 1.063 ± 0.0043 | 1.04 ± 0.035 | 1.06 ± 0.027 | 1.03 ± 0.032 | 0.982 ± 0.022 | 1.05 ± 0.021 | 1.026 ± 0.002
3 | Cc1cnc(Nc2ccc(OCCN3CCCC3)cc2)nc1Nc1cccc(S(=O)(=O)NC(C)(C)C)c1 [Fedratinib] | 1.04 ± 0.013 | 1.06 ± 0.027 | 1.05 ± 0.034 | 1.01 ± 0.073 | 1.04 ± 0.044 | 1.03 ± 0.075 | 0.942 ± 0.064 | 0.699 ± 0.049 | 0.408 ± 0.024 | 0.16 ± 0.018 | 0.00193 ± 0.0011
4 | CCCS(=O)(=O)Nc1ccc(F)c(C(=O)c2c[nH]c3ncc(-c4ccc(Cl)cc4)cc23)c1F [Vemurafenib] | 1.05 ± 0.096 | 1.07 ± 0.099 | 1.08 ± 0.074 | 1.07 ± 0.067 | 1.07 ± 0.08 | 1.02 ± 0.033 | 0.863 ± 0.059 | 0.706 ± 0.063 | 0.642 ± 0.058 | 0.528 ± 0.034 | 0.342 ± 0.015
5 | Cn1cnc2c(F)c(Nc3ccc(Br)cc3F)c(C(=O)NOCCO)cc21 [Binimetinib] | 1.11 ± 0.046 | 1.06 ± 0.027 | 1.02 ± 0.059 | 1.05 ± 0.041 | 0.889 ± 0.038 | 0.724 ± 0.086 | 0.635 ± 0.041 | 0.584 ± 0.011 | 0.589 ± 0.02 | 0.583 ± 0.037 | 0.559 ± 0.026
6 | COc1c(OCCCN2CCOCC2)ccc2c1N=C(NC(=O)c1cnc(N)nc1)N1CCN=C21 [Copanlisib] | 1.07 ± 0.03 | 1.02 ± 0.049 | 1.02 ± 0.064 | 0.817 ± 0.059 | 0.689 ± 0.037 | 0.599 ± 0.08 | 0.425 ± 0.033 | 0.284 ± 0.0047 | 0.193 ± 0.013 | 0.16 ± 0.006 | 0.149 ± 0.015
7 | COc1cc2nccc(Oc3ccc(NC(=O)Nc4cc(C)on4)c(Cl)c3)c2cc1OC [Tivozanib] | 1.07 ± 0.073 | 1.07 ± 0.026 | 1.04 ± 0.031 | 1.06 ± 0.038 | 1.08 ± 0.031 | 1.09 ± 0.039 | 1.08 ± 0.044 | 1.1 ± 0.051 | 1.07 ± 0.028 | 1.03 ± 0.036 | 0.691 ± 0.031
8 | CC[C@H](Nc1ncnc2[nH]cnc12)c1nc2cccc(F)c2c(=O)n1-c1ccccc1 [Idelalisib] | 1.09 ± 0.073 | 1.13 ± 0.052 | 1.1 ± 0.034 | 1.1 ± 0.046 | 1.11 ± 0.052 | 1.08 ± 0.055 | 1.07 ± 0.066 | 1.04 ± 0.087 | 0.945 ± 0.043 | 0.876 ± 0.051 | 0.746 ± 0.036
9 | Cc1cc(C)c(/C=C2\C(=O)Nc3ccccc32)[nH]1 [Semaxanib] | 0.968 ± 0.038 | 0.968 ± 0.024 | 0.938 ± 0.084 | 0.933 ± 0.067 | 0.936 ± 0.062 | 0.953 ± 0.067 | 0.979 ± 0.022 | 0.99 ± 0.028 | 0.963 ± 0.042 | 0.972 ± 0.031 | 0.8936 ± 0.0083
10 | Cc1ccc(F)c(NC(=O)Nc2ccc(-c3cccc4[nH]nc(N)c34)cc2)c1 [Linifanib] | 1.07 ± 0.042 | 1.06 ± 0.048 | 1.07 ± 0.028 | 1.02 ± 0.027 | 1.012 ± 0.0025 | 1.01 ± 0.015 | 1.01 ± 0.053 | 0.991 ± 0.022 | 1.02 ± 0.033 | 1.05 ± 0.049 | 1.03 ± 0.076
11 | COCc1c(-c2cc3cc(C)cc(OC)c3s2)c2c(N)ncnn2c1CN1CCNC(=O)C1 [Rogaratinib] | 1.08 ± 0.043 | 1.07 ± 0.012 | 1.06 ± 0.045 | 1.03 ± 0.013 | 1.003 ± 0.0078 | 1.03 ± 0.011 | 1.03 ± 0.026 | 0.992 ± 0.028 | 0.952 ± 0.02 | 0.815 ± 0.051 | 0.513 ± 0.0093
12 | N#CC[C@H](C1CCCC1)n1cc(-c2ncnc3[nH]ccc23)cn1 [Ruxolitinib] | 1.02 ± 0.032 | 1.048 ± 0.0078 | 1.052 ± 0.009 | 1.01 ± 0.014 | 0.9983 ± 0.0075 | 0.998 ± 0.038 | 0.974 ± 0.046 | 0.954 ± 0.059 | 0.914 ± 0.075 | 0.886 ± 0.041 | 0.729 ± 0.024
13 | CCN1CCN(Cc2ccc(Nc3ncc(F)c(-c4cc(F)c5nc(C)n(C(C)C)c5c4)n3)nc2)CC1 [Abemaciclib] | 1.01 ± 0.08 | 1.03 ± 0.038 | 1.01 ± 0.044 | 1.02 ± 0.046 | 1.01 ± 0.052 | 0.95 ± 0.095 | 0.874 ± 0.037 | 0.742 ± 0.025 | 0.678 ± 0.032 | 0.668 ± 0.018 | 0.709 ± 0.04
14 | CNC(=O)c1cc(Oc2ccc(NC(=O)Nc3ccc(Cl)c(C(F)(F)F)c3)c(F)c2)ccn1 [Regorafenib] | 1.11 ± 0.07 | 1.12 ± 0.039 | 1.12 ± 0.034 | 1.14 ± 0.025 | 1.14 ± 0.017 | 1.119 ± 0.011 | 1.11 ± 0.013 | 1.07 ± 0.061 | 0.96 ± 0.027 | 0.824 ± 0.058 | 0.662 ± 0.027
